ChEMBL document CHEMBL3507680, “University of Dundee, Gates Library screen for HepG2 cell viability”

Experiment: Human HepG2 cell viability assay in 384 well format
Assay type: toxicity, cell-based
Design: dose 125 nL, time 70.5 hour; concentration not given beside the values
Conditions: HepG2 cells, read-out: Inhibition

Row | Compound | cytotoxicity at 70.5 h [%]
1 | CSCc1cc(F)ccc1CNCc1cccnc1 | -6.28
2 | CCn1nc(C)cc1C(=O)NCc1noc(C(C)(C)C)n1 | -1.63
3 | Cn1c(CC2CCS(=O)(=O)C2)nnc1SCCOc1ccccc1F (stereo unspecified) | -8.16
4 | N#CCCN(C(=O)CN1CCCC1C1CCCCC1)c1ccccc1 (stereo unspecified) | 11.9
5 | Cc1ccc2oc(CNC(C)c3nnc4n3CCCC4)cc2c1 (stereo unspecified) | 5.79
6 | CC(NCc1ccc(Cl)o1)c1nnc2n1CCCC2 (stereo unspecified) | 9.09
7 | Cc1ccc(C(=O)NCCS(C)(=O)=O)c(=O)[nH]1 | -5.11
8 | COc1cc(CN(C)C(=O)NCCC2CCCO2)ccc1SC (stereo unspecified) | -3.73
9 | Cc1nnc(NC(=O)CN(C)CC2CCCN2c2cccnn2)s1 (stereo unspecified) | 18.3
10 | Cc1ccc(CNC2CCN(CCc3ccncc3)CC2)s1 | 1.18
11 | Cc1cc(C)n(-c2cncc(N3CCN(C(=O)C(C)(C)C)CC3)n2)n1 | 1.04
12 | CCS(=O)(=O)NC(C(=O)NC)c1ccc(F)c(F)c1 (stereo unspecified) | 2.45
13 | CNC(=O)C(NC(=O)c1nccn2ccnc12)c1ccc(F)c(F)c1 (stereo unspecified) | -1.99
14 | CC(=O)N1CCN(C(=O)C2SCCc3sccc32)CC1 (stereo unspecified) | 20.4
15 | CC(CNC(=O)N1CCN(CC(F)F)CC1)Cc1cccs1 (stereo unspecified) | 1.43
16 | N#CCCN(C(=O)CN1CCCC1Cc1ccccc1)c1ccccc1 (stereo unspecified) | 0.569
17 | CCC1CCCCN1C(=O)c1ccc2[nH]nnc2c1 (stereo unspecified) | -2.33
18 | COc1cccc(CN(C)Cc2ccc(C#N)cc2)c1OC | -1.54
19 | Cc1cccnc1NC(=O)C1CCCN1Cc1ccccc1 (stereo unspecified) | 8.68
20 | CS(=O)(=O)NCCC(=O)NC1CCc2nccn2C1 (stereo unspecified) | -4.75
21 | CS(=O)(=O)NCC(=O)NC1CCc2nccn2C1 (stereo unspecified) | -7.92
22 | Cc1nc(C2CCCN2C(=O)CNS(C)(=O)=O)no1 (stereo unspecified) | -13.3
23 | O=C(NCCCn1cccn1)N1CCCC1c1ccncc1 (stereo unspecified) | 6.98

Row | Compound | cytotoxicity at 70.5 h [%]
24 | CNC(=O)NC(=O)CN1CCC(c2c[nH]c3ccc(OC)cc23)CC1 | -5.75
25 | CCC(=O)NCC(=O)NCc1cc(Br)ccc1OC(F)F | -5.29
26 | CN(C)C(=O)CNC(=O)c1cc(Br)c2c(c1)OCCO2 | -3.47
27 | CCSCCC(=O)Nc1ncn(CC(=O)NCc2ccccc2)n1 | -7.93
28 | CC(Sc1nnnn1C1CCOCC1)C(=O)NC1CCCCC1 (stereo unspecified) | -3.49
29 | CNC(=O)Cn1cc(C#N)c(=O)c2cc(Br)ccc21 | -3.12
30 | O=C(O)c1csc(S(=O)(=O)N2CCCc3ccc(F)cc32)c1 | -0.904
31 | C[S+]([O-])CCCNC(=O)c1cc(Br)c2c(c1)OCCO2 (stereo unspecified) | -0.213
32 | CCOCCn1nnc(C2(NC(=O)c3ccccc3)CCCC2)n1 | 3.3
33 | CN(CCNC(=O)N1CCN(Cc2ccon2)CC1)c1ccccc1 | -5.16
34 | Cc1cnn(Cc2cc(F)ccc2F)c1NC(=O)C1COCCO1 (stereo unspecified) | -0.231
35 | NC(=O)C1CCN(Cc2cccc(NC(=O)c3ccsc3)c2)CC1 | 0.035
36 | CCc1nsc(NC2CCCn3nc(CC)nc32)n1 (stereo unspecified) | -5.19
37 | CCc1nc(CCNC(=O)Nc2cc(C(N)=O)sc2C)cs1 | 17
38 | CC(=O)Nc1c(C)cnn1Cc1cc(F)ccc1F | -2.07
39 | CSC(C)(C)CNC(=O)NCCC1CCN(C)CC1 | -3.38
40 | CN1CCCC(CNC(=O)N2CCN(Cc3ccon3)CC2)C1 (stereo unspecified) | -0.171
41 | CC(NC(=O)Cn1cccn1)c1cccnc1 (stereo unspecified) | -4.88
42 | COc1ccc(-n2cnnc2SCC(C)(C)O)cn1 | -3.59
43 | COc1ccc(CNC(C)c2cccc(Cl)c2)c(OC)c1OC (stereo unspecified) | -0.149
44 | Cc1ccc(N2CCCC(N(C)Cc3cc(C)no3)C2)nn1 (stereo unspecified) | -2.5
45 | CN1CCN(C(CNC(=O)CCn2cccn2)c2cccs2)CC1 (stereo unspecified) | -4.76
46 | Cn1cccc1C1CCCN1C(=O)NCCCn1cccn1 (stereo unspecified) | -7.92

Row | Compound | cytotoxicity at 70.5 h [%]
47 | FC(F)(F)COCCN1CCCC(c2noc(C3CC3)n2)C1 (stereo unspecified) | -10.4
48 | O=C(COc1cccc(Br)c1)N1CCN(c2nccs2)CC1 | 14.3
49 | CCn1cc(NC(=O)NC2CCCc3c2cnn3CCO)cn1 (stereo unspecified) | -2.96
50 | COc1ncccc1C(=O)N1CCC(CNC(C)=O)CC1 | -11.5
51 | O=C(NCCNS(=O)(=O)c1ccc2c(c1)CCCC2)c1ccoc1 | -8.42
52 | Cc1ccc(S(=O)(=O)NCCNC(=O)c2ccoc2)cc1F | 11.8
53 | CN(C)CCn1c(=O)oc2ccc(NC(=O)c3cc(Cl)c[nH]3)cc21 | -2.49
54 | O=C(CCNS(=O)(=O)c1ccc2c(c1)CCCC2)NCc1ccoc1 | -11.5
55 | CN(C)CCn1c(=O)oc2ccc(NC(=O)CC(C)(C)C)cc21 | -6.79
56 | CCN(C)c1ccc(C(=O)N(CCOC)Cc2ccccn2)cc1 | 14.7
57 | CN(C)CCn1c(=O)oc2ccc(NC(=O)C3CCCO3)cc21 (stereo unspecified) | 1.22
58 | O=C(NCc1ccncc1)N(Cc1ccccc1F)C1CC1 | 13
59 | Cc1cc(C)n(CC2CCCCN2CC(=O)Nc2nncs2)n1 (stereo unspecified) | -7.4
60 | CN(C)C(=O)CN(C)C(=O)c1cnc(Cc2ccc(F)cc2)s1 | -0.843
61 | Cc1ccc(CNC(=O)N(Cc2ccccc2F)C2CC2)cn1 | -1.38
62 | CCC(=O)NCc1cc(Br)c(OC)c(OC)c1 | -0.621
63 | COc1ccccc1OCCN1CCCC(c2noc(C3CC3)n2)C1 (stereo unspecified) | -0.413
64 | Cc1oc(C(=O)O)cc1S(=O)(=O)Nc1c(F)cccc1-n1cccn1 | -0.99
65 | Cc1cnc(C(=O)N2CCN3C[C@H](OCc4cccnc4)C[C@H]3C2)cn1 | -9.39
66 | CCS(=O)(=O)N1CCC2(CC1)CN(c1ccsc1)C(=O)CO2 | -11.6
67 | CCOC[C@@H]1CCC[C@@]12CN(Cc1cccnc1)CCO2 | -5.78
68 | Cn1cc(C[C@H]2[C@H](O)CCN2C(=O)c2ccsc2)cn1 | -4.72
69 | Cn1cc(-c2cnc(N3CCOCC3)nc2)cc1C(=O)NC1CC1 | 23.6

Row | Compound | cytotoxicity at 70.5 h [%]
70 | CC(C)NC(=O)[C@@H]1CN(Cc2nccs2)C[C@H]2OCC[C@H]21 | 36
71 | COCC1CN(C(=O)c2ccc(C)o2)Cc2nccn2C1 (stereo unspecified) | 14.4
72 | COCC(=O)N1CCN(CC2CC2)c2ncccc2C1 | 15.5
73 | CN(C)C(=O)CN1CCC2(CCCN(Cc3ccoc3)C2)C1=O (stereo unspecified) | -13.2
74 | CC(C)C(=O)N1CCOC2(COCCN(c3ncccn3)C2)C1 (stereo unspecified) | -11.8
75 | Cc1ccc(CN2CCC3(CCCN(S(C)(=O)=O)C3)C2)o1 (stereo unspecified) | -12.7
76 | CCN1CCc2nc(N3CCOCC3)nc(NC(C)C)c2C1 | -9.45
77 | Cc1ccc(CN2CCCC3(CCN(Cc4ccc(C)o4)C3)C2)o1 (stereo unspecified) | -11.5
78 | CN(C)CC(=O)N1CCC2(CC1)COCCN(Cc1ccncc1)C2 | -8.72
79 | CN(C)C(=O)N1CCCC2(CCN(c3ccsc3)C2=O)C1 (stereo unspecified) | -6.16
80 | Cc1noc(C)c1CN1C[C@@H]2COC[C@@H](C(=O)N3CCCCO3)[C@@H]2C1 | -8.21
81 | Cc1cc(CN2C[C@@H]3COC[C@H](C(=O)N4CCCCO4)[C@@H]3C2)oc1C | -11
82 | Cc1cc(CN2C[C@@H]3COC[C@@H](C(=O)N4CCCCO4)[C@@H]3C2)oc1C | -6.96
83 | Cc1ccsc1C(=O)N1CC[C@@H](N(C)C)[C@@H]1Cc1cnn(C)c1 | -11.2
84 | CN(C)[C@@H]1CCN(C(=O)Cc2cccs2)[C@H]1Cc1cnn(C)c1 | -8.18
85 | CN(C)C(=O)c1cnc2n1CCN(Cc1ccc3c(c1)OCO3)C2 | -7.97
86 | Cn1cc(-c2cnc(N3CCOCC3)nc2)cc1C(=O)NCCC#N | -9.71
87 | O=C(c1ccco1)N1CCO[C@@H]2CN(CC3CC3)CC[C@@H]2C1 | 28
88 | Cc1cc(C(=O)N2CCO[C@H]3[C@H](Oc4ccccn4)CC[C@@H]32)c(C)[nH]1 | -8.01
89 | Cc1ccc(C(=O)N2CC[C@H]3[C@@H]2CCC(=O)N3c2cccnc2)o1 | -13.5
90 | c1csc(CN2CCCn3nnc(COCC4CC4)c3C2)n1 | -11
91 | COCC1CN(C(=O)c2cccc(C)n2)Cc2nccn2C1 (stereo unspecified) | -10.2
92 | Cc1cccc(CN2CCCC3(CCN(CC(=O)N(C)C)C3=O)C2)n1 (stereo unspecified) | -13.1

Row | Compound | cytotoxicity at 70.5 h [%]
93 | Cn1cc(CN2C[C@@H]3COC[C@]3(CNC(=O)c3ccco3)C2)cn1 | -10.1
94 | Cc1cc(CN2C[C@@H]3COC[C@]3(CNC(=O)c3ccco3)C2)no1 | -7.96
95 | COCCNC(=O)[C@H]1C[C@@H]2CCN(CCc3ccccc3)C[C@@H]2O1 | -4.71
96 | COCCC(=O)N1CC2(CCN(Cc3ccccc3Cl)CC2)C1 | 12.5
97 | CN(C)CCN1C(=O)CC[C@@H]2[C@H]1CCN2Cc1cccc(C#N)c1 | -8.56
98 | Cc1ccc(C(=O)N2CC[C@@H](N(C)C)[C@@H]2Cc2cnn(C)c2)cn1 | -10.1
99 | N#Cc1cccc(CN2CC[C@@H]3[C@@H]2CC(=O)N3Cc2ccncc2)c1 | -3.67
100 | COCCN1C[C@@H]2[C@@H](OC)CCN(S(=O)(=O)c3cccnc3)[C@@H]2C1 | -12.3
101 | Cc1cncc(C(=O)N2CCO[C@H]3[C@H](Oc4ccccn4)CC[C@@H]32)c1 | -12.4
102 | Cn1cccc1C(=O)NCc1cn2c(n1)CN(Cc1cccnc1)CC2 | -12.8
103 | CN(C)CCN1CCC2(CCCN(Cc3cccn3C)C2)C1=O (stereo unspecified) | -11.1
104 | O=C(C1CCCO1)N1CCC2(CC1)COCCN(Cc1ccncc1)C2 (stereo unspecified) | -9.52
105 | Cc1ccc2c(n1)N(CCN(C)C)CCN(C(=O)c1cscn1)C2 | -7.14
106 | c1cncc(COC[C@H]2CC[C@H]3[C@H](CCN3Cc3nccs3)O2)c1 | -0.559
107 | c1ccc(CN2CC[C@@H]3O[C@@H](COCCN4CCCC4)CC[C@@H]32)nc1 | -13.6
108 | Cc1ccc(CN2CCOC3(COCCN(Cc4ccncc4)C3)C2)o1 (stereo unspecified) | -13.7
109 | CN(C)CCN1CCOCC2(C1)CN(Cc1ccco1)CCO2 (stereo unspecified) | -17.1
110 | Cc1cc(C)cc(CN2C[C@H]3COC[C@H](N4CCN(C)CC4)[C@H]3C2)c1 | -6.19
111 | Fc1cccc(N2CCCC3(CN(Cc4cccnc4)CCO3)C2)c1 (stereo unspecified) | -6.89
